# Source: patent US20240024403A1, “Compositions and Methods for Managing Weight” (Unigen, Inc., priority 2012, published 2024)
# Test: High fat diet induced obesity (DIO) mouse model
# Assay type: in vivo, C57CL/6J mice
# Conditions: for Total Weight / Total Body Weight: in g (unit assumed); for Feed intake: orlistat 40 mg/kg/day oral
# Method: C57CL/6J mice aged 4-6 weeks (Korea Research Institute of Bioscience & Biotechnology, Ohchang, Korea) were housed in Polycarbonate cages (five mice per cage) in a room with a 12 hr:12 hr light-dark cycle and an ambient temperature of 24° C. All the mice were fed a commercial chow diet for 1 week after arrival in the animal facility. Mice were then divided into normal and obesity groups and fed with normal diet (ND) and high fat diets (HFD) respectively. The HFD group was divided into multiple treatment groups: a high fat diet vehicle group (HFD), an orlistat (purchased as OTC drug Alli®) positive control treatment group (ORI, 40 mg/kg of animal weight, 2 times/day) and optionally a sibutramine positive control treatment group (10 mg/kg, 1 time/day). The HFD contained 340 g of fat/kg of HFD (310 g lard plus 30 g soybean oil; Harlan Laboratories, USA). The HFD was formulated to provide 60% of the total energy generated by the diet from fat by replacing carbohydrate energy with lard and soybean oil, whereas the normal diet (ND) group was fed a diet providing only 18% of the total diet energy from fat(Harlan Laboratories, USA).
# Body weight was measured once each week and feed intake was measured twice per week. At the end of the experimental period, following a 12 hr. fasting period, the animals were anesthetized with ether, and blood was drawn from the abdominal vein. Liver and kidney and adipose tissues (epididymal, retroperitoneal, perirenal adipose tissues) were removed from each animal, rinsed with physiological saline, and weighed. Serum concentrations of glucose, total cholesterol, triglycerides, and LDL-cholesterol were determined using automatic analyzer (INTEGRA 400, Roche, Germany). Statistical significance of test results was measured using the Student's t-test.
# [1] = DIO mice, week 2, G1 = 1,100 mg/kg orally twice a day
# [2] = DIO mice, week 2, G1 = 1,200 mg/kg orally twice a day
# [3] = DIO mice, week 3, G1 = 800 mg/kg orally twice a day
# [4] = DIO mice, week 3, G1 = 1,100 mg/kg orally twice a day
# [5] = DIO mice, week 3, G1 = 1,200 mg/kg orally twice a day
# [6] = DIO mice, week 4, G1 = 800 mg/kg orally twice a day
# [7] = DIO mice, week 4, G1 = 1,100 mg/kg orally twice a day
# [8] = DIO mice, week 4, G1 = 1,200 mg/kg orally twice a day
# [9] = DIO mice, week 5, G1 = 800 mg/kg orally twice a day
# [10] = DIO mice, week 5, G1 = 1,100 mg/kg orally twice a day
# [11] = DIO mice, week 5, G1 = 1,200 mg/kg orally twice a day
# [12] = DIO mice, week 6, G1 = 800 mg/kg orally twice a day
# [13] = DIO mice, week 6, G1 = 1,100 mg/kg orally twice a day
# [14] = DIO mice, week 6, G1 = 1,200 mg/kg orally twice a day
# [15] = DIO mice, week 7, G1 = 800 mg/kg orally twice a day
# [16] = DIO mice, week 7, G1 = 1,100 mg/kg orally twice a day
# [17] = DIO mice, week 7, G1 = 1,200 mg/kg orally twice a day
# [18] = DIO mice, week 8, G1 = 800 mg/kg orally twice a day
# [19] = DIO mice, week 8, G1 = 1,100 mg/kg orally twice a day
# [20] = DIO mice, week 8, G1 = 1,200 mg/kg orally twice a day
# [21] = Liver pathology, DIO mice, G1 = 800 mg/kg orally twice a day
# [22] = Liver pathology, DIO mice, G1 = 1,100 mg/kg orally twice a day
# [23] = ORI 40 mg/kg, DIO mice, end of study
# [24] = ORI 40 mg/kg, mice fed a high fat diet (Table 44)
# [25] = ORI 40 mg/kg, mice fed high fat diet
# [26] = ORI, DIO mice, blood at end of study
# [27] = blood at end of study, orlistat 40 mg/kg oral
# [28] = liver pathology score, DIO mice, combination (10:1) 1100 mg/kg twice a day
# [29] = liver pathology score, mice fed a high fat diet, Mutamba fractions 250 mg/kg oral 2 times per day, mean
# [30] = liver pathology score, mice fed a high fat diet, Mutamba fractions 250 mg/kg oral 2 times per day, mean (table printed twice)
smiles,measurement,setting,value
"CCCCCCCCCCC[C@@H](C[C@@H]1OC(=O)[C@H]1CCCCCC)OC(=O)[C@H](CC(C)C)NC=O [ORI, orlistat]",Total Weight,"DIO mice, week 2, G1 = 800 mg/kg orally twice a day",34.08
same,Weight Gain,[1],−6.14
same,Total Weight,[1],34.08
same,Weight Gain,[2],−6.14
same,Total Body Weight,[2],34.08
same,Total Weight,"DIO mice, week 2, ORI group, mean, Table 134",31.91
same,Weight Gain,"DIO mice, week 2, ORI group, mean, Table 135",−6.69
same,Total Body Weight,"DIO mice, week 2, ORI group, mean, Table 145",34.08
same,Weight Gain,"DIO mice, week 2, ORI group, mean, Table 146",−6.14
same,Weight Gain,[3],−4.91
same,Total Weight,[3],35.32
same,Weight Gain,[4],−4.91
same,Total Weight,[4],35.32
same,Weight Gain,[5],−4.91
same,Total Body Weight,[5],35.32
same,Total Weight,"DIO mice, week 3, ORI group, mean, Table 134",33.34
same,Weight Gain,"DIO mice, week 3, ORI group, mean, Table 135",−5.27
same,Total Body Weight,"DIO mice, week 3, ORI group, mean, Table 145",35.32
same,Weight Gain,"DIO mice, week 3, ORI group, mean, Table 146",−4.91
same,Weight Gain,[6],−3.84
same,Total Weight,[6],36.38
same,Weight Gain,[7],−3.84
same,Total Weight,[7],36.38
same,Weight Gain,[8],−3.84
same,Total Body Weight,[8],36.38
same,Total Weight,"DIO mice, week 4, ORI group, mean, Table 134",35.14
same,Weight Gain,"DIO mice, week 4, ORI group, mean, Table 135",−3.47
same,Total Body Weight,"DIO mice, week 4, ORI group, mean, Table 145",36.38
same,Weight Gain,"DIO mice, week 4, ORI group, mean, Table 146",−3.84
same,Weight Gain,[9],−2.57
same,Total Weight,[9],37.65
same,Weight Gain,[10],−2.57
same,Total Weight,[10],37.65
same,Weight Gain,[11],−2.57
same,Total Body Weight,[11],37.65
same,Total Weight,"DIO mice, week 5, ORI group, mean, Table 134",36.27
same,Weight Gain,"DIO mice, week 5, ORI group, mean, Table 135",−2.34
same,Total Body Weight,"DIO mice, week 5, ORI group, mean, Table 145",37.65
same,Weight Gain,"DIO mice, week 5, ORI group, mean, Table 146",−2.57
same,Weight Gain,[12],−1.47
same,Total Weight,[12],38.75
same,Weight Gain,[13],−1.47
same,Total Weight,[13],38.75
same,Weight Gain,[14],−1.47
same,Total Body Weight,[14],38.75
same,Total Weight,"DIO mice, week 6, ORI group, mean, Table 134",37.52
same,Weight Gain,"DIO mice, week 6, ORI group, mean, Table 135",−1.08
same,Total Body Weight,"DIO mice, week 6, ORI group, mean, Table 145",38.75
same,Weight Gain,"DIO mice, week 6, ORI group, mean, Table 146",−1.47
same,Weight Gain,[15],−0.26
same,Total Weight,[15],39.96
same,Weight Gain,[16],−0.26
same,Total Weight,[16],39.96
same,Weight Gain,[17],−0.26
same,Total Body Weight,[17],39.96
same,Total Weight,"DIO mice, week 7, ORI group, mean, Table 134",38.62
same,Weight Gain,"DIO mice, week 7, ORI group, mean, Table 135",0.02
same,Total Body Weight,"DIO mice, week 7, ORI group, mean, Table 145",39.96
same,Weight Gain,"DIO mice, week 7, ORI group, mean, Table 146",−0.26
same,Weight Gain,[18],−0.23
same,Total Weight,[18],39.99
same,Weight Gain,[19],−0.23
same,Total Weight,[19],39.99
same,Weight Gain,[20],−0.23
same,Total Body Weight,[20],39.99
same,Total Body Weight,"DIO mice, week 8, ORI group, mean, Table 145",39.99
same,Weight Gain,"DIO mice, week 8, ORI group, mean, Table 146",−0.23
same,Hepatocellular ballooning (0-2),[21],0.33
same,Lobular Inflammation (0-3),[21],1.50
same,NASH (sum),[21],2.17
same,Steatosis (0-3),[21],0.33
same,Hepatocellular ballooning (0-2),[22],0.33
same,Lobular Inflammation (0-3),[22],1.50
same,NSAH (sum),[22],2.17
same,Steatosis (0-3),[22],0.33
same,Organ Weight: Epididymal Fat,[23],1.92 g
same,Organ Weight: Liver,[23],1.12 g
same,Organ Weight: Perirenal Fat,[23],0.33 g
same,Organ Weight: Retroperitoneal Fat,[23],0.47 g
same,Organ Weight: Total Fat,[23],2.73 g
same,Average Body Weight Gain,[24],-0.031 g/day
same,Average Food Intake,[24],2.711 g/day
same,Food Efficiency Ratio (FER),[24],−0.011
same,Average Body Weight Gain,[25],-0.031 g/day
same,Average Food Intake,[25],2.711 g/day
same,Food Efficiency Ratio (FER),"ORI 40 mg/kg, mice fed high fat diet, body weight gain (g/day)/food intake (g/day)",−0.011
same,Total Body Weight,"ORI 40 mg/kg, week 0",42.76
same,Total Body Weight,"ORI 40 mg/kg, week 1",38.73
same,Total Body Weight,"ORI 40 mg/kg, week 2",35.09
same,Total Body Weight,"ORI 40 mg/kg, week 3",35.66
same,Total Body Weight,"ORI 40 mg/kg, week 4",37.28
same,Total Body Weight,"ORI 40 mg/kg, week 5",38.57
same,Total Body Weight,"ORI 40 mg/kg, week 6",40.03
same,Total Body Weight,"ORI 40 mg/kg, week 7",40.91
same,F-Glu (fasting glucose),[26],222.43 mg/dL
same,LDL-C (LDL-cholesterol),[26],4.27 mg/dL
same,T-Chol (total cholesterol),[26],134.57 mg/dL
same,ALT,[27],21.83 U/L
same,AST,[27],65.65 U/L
same,LDL-C,[27],4.03 mg/dL
same,T-chol,[27],137.33 mg/dL
same,TG,[27],27.83 mg/dL
same,Feed intake,day 4,2.23 g/day
same,Feed intake,day 7,2.56 g/day
same,Feed intake,day 11,3.01 g/day
same,Feed intake,day 14,3.18 g/day
same,Feed intake,day 21,3.27 g/day
same,Feed intake,day 25,3.27 g/day
same,Feed intake,day 28,3.44 g/day
same,Feed intake,day 32,3.27 g/day
same,Feed intake,day 35,3.35 g/day
same,Feed intake,day 39,3.17 g/day
same,Feed intake,day 42,3.43 g/day
same,Feed intake,day 46,3.18 g/day
same,Feed intake,day 49,3.54 g/day
same,Feed intake,day 53,3.17 g/day
same,weight decrease,end of the 8 week treatment,0.23 gram
same,NASH (sum),"liver pathology score sum, DIO mice, combination (10:1) 1100 mg/kg twice a day",3.40
same,Hepatocellular ballooning (0-2),[28],1.00
same,Lobular Inflammation (0-3),[28],1.40
same,Steatosis (0-3),[28],1.00
same,Hepatocellular ballooning (0-2),[29],0.80
same,Lobular Inflammation (0-3),[29],1.60
same,Steatosis (0-3),[29],1.00
same,Hepatocellular ballooning (0-2),[30],0.80
same,Lobular Inflammation (0-3),[30],1.60
same,Steatosis (0-3),[30],1.00
same,NSAH (sum),"liver pathology, sum of scores, mice fed a high fat diet, Mutamba fractions 250 mg/kg oral 2 times per day, mean",3.40
same,NSAH (sum),"liver pathology, sum of scores, mice fed a high fat diet, Mutamba fractions 250 mg/kg oral 2 times per day, mean (table printed twice)",3.40
